Consider 1 substance from US20150056191A1, “IGF1 BIOMARKER FOR IGF1R INHIBITOR THERAPY” (MERCK SHARP & DOHME CORP., priority 2012, published 2015).

In series [1] the target is IGF1 receptor (Homo sapiens, UniProt P08069). Put plainly: Blocking of IGF1 binding to the IGF1 receptor.
The subject of series [2] is H2122 NSCLC cells. Put plainly: H2122 cell growth with and without IGF1 (Cell Titer-Glo). In kind it is cell-based. The settings on record: 10 ug/ml MK-0646, 96 hours, 2% fetal calf serum. How it is done:
H2122 cells were obtained from the American Type Culture Collection (ATCC) and propagated according to the conditions provided by ATCC in media at 37° C. H2122 cells in low serum (2% fetal calf serum (Hyclone), at 2000 cells/well, were plated in a 96 well plate and incubated with 10 ug/ml MK-0646 or vehicle control for 96 hours in the presence or absence of IGF1 (10 ng; SIGMA). Cells were harvested at day 0 and day 4 and cell growth was measured by Cell Titer-Glo® ([…]) according to manufacturer instructions. The relative cell proliferation was calculated by normalizing to day 0 levels.

The subject of series [3] is primary colorectal xenograft tumor models. In words: Primary colorectal xenograft tumor models, tumor growth inhibition. In kind it is in vivo. As to the method: Primary colorectal xenograft tumor models were established from 10 independent colorectal tumors obtained directly from cancer patients. The relative levels of IGF1RNA expression were determined by gene expression profiling using genomic microarrays. […] These preclinical data provided in vivo evidence that increase sensitivity to the anti-IGF1R antibody, MK-0646, was strongly associated with increase IGF1RNA expression in the primary tumors.

The conditions of series [4]: cited from earlier work.

“Also recorded” adds a separate entry of the source. Where two headings read alike, the source gives them in different places.

With “MK-0646: anti-IGF1R monoclonal antibody dalotuzumab (MK0646; CAS no. 1005389-60-5)”, the “blocking IGF1 ability to bind directly to the IGF1 receptor” value in series [1] is reported as “capable of blocking”. For the same substance, the “proliferation of H2122 cells” value in series [2] (in the absence of IGF1) is listed as “did not significantly alter”. The “IGF1-dependent proliferation / relative cell growth of H2122 cells” value in series [2] (in the presence of IGF1 (10 ng)) was “statistically significant growth inhibition; also recorded: significantly blocked”. For the same substance, the tumor growth inhibition entry in series [3] (the 2 colorectal xenograft models with increased IGF1 RNA expression) is on record as “at least 50%”; in series [3] (the 8 xenograft tumor models with low IGF1 expression), “minimal or no tumor growth inhibition”. Moreover, the MTD was 10 mg/kg in series [4] (with G alone); 5 mg/kg in series [4] (with Gemcitabine (G) and Erlotinib (E)).
